Entries after “also recorded” stand apart in the source; their conditions may differ.
Legend:
advanced acute leukemias = assay: Clinical outcome and biologic effects in adults with advanced acute leukemias (Example 3); type: in vivo, human
Procedure: To assess response to therapy, a BM aspiration was performed weekly for 4 weeks during the first cycle, at the end of each subsequent cycle, or at any time leukemia regrowth was suspected. Complete response (CR) required a normal BM aspirate with absence of identifiable leukemia, absolute neutrophils count (ANC) of 1×10^9/L or higher, platelet count of 100×10^9/L or higher, and absence of blasts in peripheral blood (PB). […] Progressive disease (PD) was defined as >50% increase in marrow or PB blasts from baseline or development of extramedullary leukemia.

[1] = system: histone H3, H4 and protein acetylation; assay: Histone H3, H4 and protein acetylation, p21 and caspase-3 in PBMCs and BMMCs (Example 3); type: in vivo, human
Procedure: Serial marrow and/or peripheral blood cells were collected at weekly intervals to examine PAMC-induced changes in histone acetylation.
Changes in histone H3, H4 and protein acetylation (immunocytochemistry, multiparameter flow cytometry and western blot analysis.) Immunocytochemical analysis of histone H3 was performed on bone marrow mononuclear cells (BMMCs) as described previously. The multiparameter flow cytometric analysis of protein acetylation versus caspase-3 activation was performed on serial BM aspirates using monoclonal anti-acetylated lysine antibody (Cell Signaling Technology, Beverly, Mass.) followed by FITC-conjugated goat anti-mouse antibody (Caltag Laboratories, Burlingame, Calif.) and polyclonal PE-conjugated anti-caspase-3, active form antibody (BD Pharmingen, Sand Diego, Calif.). The analysis of protein acetylation versus p21 expression or CD 34 expression was performed using polyclonal anti-acetylated lysine antibody (Cell Signaling Technology) versus monoclonal anti-p21 antibody (BD Transduction Laboratories, San Jose, Calif.) or monoclonal anti-CD34 antibody (BD Pharmingen). Primary antibodies were detected using PE-conjugated goat anti-mouse and FITC-conjugated goat anti-rabbit antibodies (Caltag Laboratories). For staining, BMMCs were isolated using Ficoll-Paque Plus (Amersham Biosciences, Piscataway, N.J.) fixed in 0.4% paraformaldehyde, permeabilized with 0.4% Triton X-100, incubated with primary antibodies for 1 hour at room temperature, washed, incubated with secondary antibodies for 1 hour, washed and analyzed on a FACSCalibur flow cytometer (Becton Dickinson, San Jose, Calif.) using CellQuest software for acquisition and FloJo software for analysis.
For western blot analysis of histone acetylation, PBMCs and BMMCs were isolated using Ficoll-Paque Plus (Amersham Biosciences). Histones from the cells were prepared as follows: Cells were washed in 2 ml HBSS and disrupted by a 1 mL ice-cold lysis buffer A (10 mM Tris pH 7.6, 5 mM butyric acid, 1% Triton X-100, 1 mM MgCl2, and 1 mM PMSF). Nuclei were collected by centrifugation at 14,000 rpm for 15 min. The pellet was resuspended once with 250 μL ice-cold lysis buffer B (10 mM Tris pH 7.6, 0.25 M Sucrose, 3 mM CaCl2 and 5 mM butyric acid). Sulfuric acid was added to a concentration of 0.4 N and the tubes were incubated at 4° C. overnight. Debris was pelleted by centrifugation, and the supernatant was collected. Histones were precipitated by addition of 10 volumes of acetone and incubation at −20° C. overnight. Pellets were collected by centrifugation, briefly dried under vacuum and resuspended with dH2O. The total protein content was determined by a bicinchoninic acid assay kit (Pierce, Rockford, Ill.). The proteins 10-30 μg were separated by 15% SDS PAGE and visualized using the antibodies for acetyl-histone H3, acetyl-histone H4, and histone H2A, all from Upstate Biotechnologies (Lake Placid, N.Y.). The immunoreactive proteins were detected using ECL western blotting analysis system (Amersham Biosciences). Radiographic films of histone acetylation were scanned and digitized (UN-SCAN-IT), Silk Scientific, UT).

acetylated histone H3 = assay: Immunocytochemical analysis of acetylated histone H3 in PBMCs (Example 2); type: in vivo, human
Procedure: Louis, Mo.) for 10 minutes at room temperature, rinsed quickly with water, air-dried, mounted using SlowFade (Molecular Probes), and imaged using a Zeiss Axiophot microscope interfaced with a CCD camera (Optronics Engineering, Goleta, Calif.). Positive controls were prepared by exposing healthy donor PBMCs to SNDX-275 in vitro. Buffy coats, provided anonymously as a byproduct of whole-blood donations from paid, healthy volunteer donors through an international review board-approved protocol, were centrifuged on Ficoll-Paque Plus. […] Cells were processed for histone hyperacetylation in the same manner as patient samples. Images of PBMCs stained for acetylated histone H3 were imported into the Openlab image analysis program (Improvision, Coventry, United Kingdom) and histone acetylation levels were assessed using the Openlab quantification software.

[2] = system: Histone H3 and H4 acetylation; assay: Histone H3 and H4 acetylation in PBMCs by immunohistochemical detection (Example 1); type: in vivo, human; settings: compared with pretreatment, preliminary analyses
Procedure: Histone H3 and H4 acetylation was analyzed in peripheral blood mononuclear cells (PBMCs) by immunohistochemical detection.

[3] = Tolerability, DLT and MTD in patients with refractory solid tumors or lymphoma (Example 1); type: in vivo
Procedure: Tolerability was assessed by scheduled clinical assessments. Adverse events (AEs) were assessed using the National Cancer Institute Common Toxicity Criteria (CTC) version 2.0. […] MTD was defined as the highest dose at which no more than 1 of 6 patients experienced DLT during the first treatment cycle.

SMILES: Nc1ccccc1NC(=O)c1ccc(CNC(=O)OCc2cccnc2)cc1 [SNDX-275, N-(2-aminophenyl) 4-[N-(pyrid-3-yl)methyloxycarbonylaminomethyl]benzamide]
- CR or PR by standard criteria (advanced acute leukemias; 34 patients evaluable for response): No patients achieved CR or PR
- patients with a 50% reduction in WBC counts (advanced acute leukemias; Fifteen patients): 38.5%
- Type of Response (advanced acute leukemias; patient 2, 4 mg/m^2 × 2/4 weeks, 4 cycles, bone marrow blast response): Bone marrow PR (>50% → 12% blasts, cycle 1)
- Type of Response (advanced acute leukemias; patient 2, 4 mg/m^2 × 2/4 weeks, 4 cycles, myeloid differentiation by ANC): Differentiation in myeloid lineage (ANC 504/μL →
- ANCmax (advanced acute leukemias; patient 2, 4 mg/m^2 × 2/4 weeks, cycle 1, from ANC 504/μL): ANCmax 1410/μL, cycle 1)
- Type of Response (advanced acute leukemias; patient 5, 4 mg/m^2 × 2/4 weeks (cycle 1), 6 mg/m^2 × 2/4 weeks (cycle 2 and 3), 3 cycles): Stable disease
- Type of Response (advanced acute leukemias; patient 11, 8 mg/m^2 × 2/4 weeks, 1 cycle): Decreased transfusion requirements
- Type of Response (advanced acute leukemias; patient 14, 8 mg/m^2 × 4/6 weeks, 1 cycle): Resolution of bone pain
- Type of Response (advanced acute leukemias; patient 15, 8 mg/m^2 × 4/6 weeks, 1.75 cycles, bone marrow blast response): Bone marrow PR (35% → 14% blasts, cycle 1)
- Type of Response (advanced acute leukemias; patient 15, 8 mg/m^2 × 4/6 weeks, 1.75 cycles, myeloid differentiation by ANC): Differentiation in myeloid lineage (ANC 288/μL →
- ANCmax (advanced acute leukemias; patient 15, 8 mg/m^2 × 4/6 weeks, cycle 1, from ANC 288/μL): 2052 µL⁻¹
- ANCmax (advanced acute leukemias; patient 15, 8 mg/m^2 × 4/6 weeks, cycle 2): 5546 µL⁻¹
- Type of Response (advanced acute leukemias; patient 18, 8 mg/m^2 × 4/6 weeks, 1.25 cycles): Differentiation in myeloid lineage (ANC 124/μL →
- ANCmax (advanced acute leukemias; patient 18, 8 mg/m^2 × 4/6 weeks, cycle 1, from ANC 124/μL): ANCmax 680/μL, cycle 1)
- Type of Response (advanced acute leukemias; patient 20, 8 mg/m^2 × 4/6 weeks, 1 cycle): Decreased transfusion requirements
- Type of Response (advanced acute leukemias; patient 24, 8 mg/m^2 × 4/6 weeks, 4.75 cycles, bone marrow blast response): Bone marrow PR (30% → 20% blasts, cycle 1)
- Type of Response (advanced acute leukemias; patient 24, 8 mg/m^2 × 4/6 weeks, 4.75 cycles, myeloid differentiation by ANC): Differentiation in myeloid lineage (ANC 520/μL →
- ANCmax (advanced acute leukemias; patient 24, 8 mg/m^2 × 4/6 weeks, cycle 1, from ANC 520/μL): 3637 µL⁻¹
- ANCmax (advanced acute leukemias; patient 24, 8 mg/m^2 × 4/6 weeks, cycle 3): 4456 µL⁻¹
- Type of Response (advanced acute leukemias; patient 27, 8 mg/m^2 × 4/6 weeks, 5 cycles): Stable disease; also recorded: Peripheral blood 21% → 0% blasts
- Type of Response (advanced acute leukemias; patient 33, 10 mg/m^2 × 4/6 weeks, 2 cycles): Resolution of extramedullary chloroma
- Type of Response (advanced acute leukemias; patient 34, 10 mg/m^2 × 4/6 weeks, 2 cycles, bone marrow blast response): Bone marrow CR (54% → 3% blasts, cycle 1)
- Type of Response (advanced acute leukemias; patient 34, 10 mg/m^2 × 4/6 weeks, 2 cycles, myeloid differentiation by ANC): Differentiation in myeloid lineage (ANC 103/μL →
- ANCmax (advanced acute leukemias; patient 34, 10 mg/m^2 × 4/6 weeks, cycle 1, from ANC 103/μL): 854 µL⁻¹
- ANCmax (advanced acute leukemias; patient 34, 10 mg/m^2 × 4/6 weeks, cycle 2): 2929 µL⁻¹
- median time to 50% reduction in WBC counts (advanced acute leukemias; range 3-28): 6 days
- histone H3 and H4 acetylation by western blotting ([1]; PBMCs and BMMCs, 8 patients at DL 4 and 1 patient at DL 5): increase in histone H3 and H4 acetylation
- protein and H3/H4 acetylation, p21 expression, caspase-3 activation ([1]; bone marrow mononuclear cells): increase in protein and H3/H4 acetylation, p21 expression, and caspase-3 activation
- specimens with caspase-3 activation ([1]; flow cytometric analysis): 67%
- time at which increase in histone H3 and H4 acetylation was evident ([1]; following SNDX-275 treatment, 4 patients with early PB specimens): 8 to 12 h
- persistence of histone acetylation following last SNDX-275 administration ([1]; in vivo): 2-3 weeks
- histone H3 acetylation by immunocytochemistry ([1]; lowest dose level): increase in histone H3 acetylation
- histone H3 acetylation in peripheral-blood mononuclear-cells (acetylated histone H3; apparent at all dose levels, immunofluoresence analysis): Increased histone H3 acetylation
- histone H3 and H4 acetylation (HDAC inhibition) (acetylated histone H3; daily schedule patients): HDAC inhibition occurred after one dose
- histone H3 and H4 acetylation in PBMCs [2]: increase in histone H3 and H4 acetylation
- maximum tolerated dose (MTD) ([3]; Schedule A, 2-6 mg/m^2 biweekly): not reached
- drug-related grade 4 adverse events ([3]; human, in vivo): No drug-related grade 4 (gr4) adverse events (AEs) were reported
